Active and inactive are the calls of the source. The rule behind the calls is not given here.
Experiments:
[1] = system: Cryptosporidium parvum; assay: Antiparasitic activity against Cryptosporidium parvum infected in human HCT-8 cells assessed as parasitic growth inhibition incubated for 48 hrs by fluorescence microscopic analysis; type: functional, organism-based; settings: HCT-8, 48 h
[2] = system: HCT-8; assay: Cytotoxicity against human HCT-8 cells assessed as reduction in cell number upto 50 uM incubated for 48 hrs by; type: toxicity, cell-based; settings: hct-8, 48 h
[3] = biological target: Voltage-gated inwardly rectifying potassium channel KCNH2 (Homo sapiens, UniProt Q12809); assay: Displacement of [3H]Dofetilide from human ERG at 30 uM by automated patch clamp assay relative to control; settings: 30 µM
[4] = biological target: T1, hERG (KCNH2) (Homo sapiens, UniProt Q12809); assay: Inhibition of human ERG expressed in CHO cells at 1 uM by automated patch clamp assay relative to control; type: cell-based; settings: CHO cells that express hERG
[5] = biological target: T1, hERG (KCNH2); assay: Inhibition of human ERG expressed in CHO cells at 10 uM by automated patch clamp assay relative to control; type: cell-based; settings: CHO cells that express hERG
[6] = biological target: T1, hERG (KCNH2); assay: Inhibition of human ERG expressed in CHO cells at 30 uM by automated patch clamp assay relative to control; type: cell-based; settings: CHO cells that express hERG
[7] = Metabolic stability in mouse liver microsomes assessed as intrinsic clearance measured upto 60 mins; type: ADME, Microsome; settings: read-out: CLH
[8] = Metabolic stability in mouse liver microsomes assessed as half life measured upto 60 mins; type: ADME, Microsome; settings: 1 h
[9] = Metabolic stability in mouse intestinal S9 fraction assessed as intrinsic clearance measured upto 60 mins; type: ADME, subcellular, Intestine; settings: read-out: CLH
[10] = Metabolic stability in mouse intestinal S9 fraction assessed as half life measured upto 60 mins; type: ADME, subcellular, Intestine; settings: s9, 1 h
[11] = Plasma protein binding in mouse at 1 uM incubated for 30 mins by LC-MS/MS analysis; type: ADME, cell-free; settings: 0.5 h
[12] = AUC in mouse plasma at 5 mg/kg, po measured upto 24 hrs by LC-MS/MS analysis; type: ADME, organism-based; design: dose 5 mg/kg, time < 24 hrs, route po; settings: in vivo
[13] = AUC in mouse Jejunum at 5 mg/kg, po measured upto 24 hrs by LC-MS/MS analysis; type: ADME, organism-based; design: dose 5 mg/kg, time < 24 hrs, route po; settings: in vivo
[14] = Cmax in mouse plasma at 5 mg/kg, po measured upto 24 hrs by LC-MS/MS analysis; type: ADME, organism-based; design: time < 24 hrs, dose 5 mg/kg, route po; settings: in vivo
[15] = Cmax in mouse Jejunum at 5 mg/kg, po measured upto 24 hrs by LC-MS/MS analysis; type: ADME, organism-based; design: dose 5 mg/kg, time < 24 hrs, route po; settings: in vivo
[16] = Tmax in mouse plasma at 5 mg/kg, po measured upto 24 hrs by LC-MS/MS analysis; type: ADME, organism-based; settings: in vivo
[17] = Tmax in mouse Jejunum at 5 mg/kg, po measured upto 24 hrs by LC-MS/MS analysis; type: ADME, organism-based; settings: in vivo
[18] = system: Cryptosporidium parvum; assay: Antiparasitic activity against Cryptosporidium parvum infected in mouse assessed as reduction in parasitic growth at >= 5 mg/kg, po pre-infected with parasite for 7 days followed by compound addition twice daily for 4 days; type: functional; design: scale not given: the % may be the effect or the level left; settings: time 4 day
[19] = system: Cryptosporidium parvum; assay: Antiparasitic activity against Cryptosporidium parvum infected in mouse assessed as relapse in parasite growth at >=5 mg/kg, po pre-infected with parasite for 7 days followed by compound addition twice daily for 4 days; type: functional, organism-based; settings: time 4.0 day
[20] = system: Cryptosporidium parvum; assay: Antiparasitic activity against Cryptosporidium parvum infected in mouse assessed as relapse in parasite growth at 5 mg/kg, po pre-infected with parasite for 7 days followed by compound addition twice daily for 4 days; type: functional, organism-based; settings: time 4.0 day

T1 sequence (Q12809 whole entry): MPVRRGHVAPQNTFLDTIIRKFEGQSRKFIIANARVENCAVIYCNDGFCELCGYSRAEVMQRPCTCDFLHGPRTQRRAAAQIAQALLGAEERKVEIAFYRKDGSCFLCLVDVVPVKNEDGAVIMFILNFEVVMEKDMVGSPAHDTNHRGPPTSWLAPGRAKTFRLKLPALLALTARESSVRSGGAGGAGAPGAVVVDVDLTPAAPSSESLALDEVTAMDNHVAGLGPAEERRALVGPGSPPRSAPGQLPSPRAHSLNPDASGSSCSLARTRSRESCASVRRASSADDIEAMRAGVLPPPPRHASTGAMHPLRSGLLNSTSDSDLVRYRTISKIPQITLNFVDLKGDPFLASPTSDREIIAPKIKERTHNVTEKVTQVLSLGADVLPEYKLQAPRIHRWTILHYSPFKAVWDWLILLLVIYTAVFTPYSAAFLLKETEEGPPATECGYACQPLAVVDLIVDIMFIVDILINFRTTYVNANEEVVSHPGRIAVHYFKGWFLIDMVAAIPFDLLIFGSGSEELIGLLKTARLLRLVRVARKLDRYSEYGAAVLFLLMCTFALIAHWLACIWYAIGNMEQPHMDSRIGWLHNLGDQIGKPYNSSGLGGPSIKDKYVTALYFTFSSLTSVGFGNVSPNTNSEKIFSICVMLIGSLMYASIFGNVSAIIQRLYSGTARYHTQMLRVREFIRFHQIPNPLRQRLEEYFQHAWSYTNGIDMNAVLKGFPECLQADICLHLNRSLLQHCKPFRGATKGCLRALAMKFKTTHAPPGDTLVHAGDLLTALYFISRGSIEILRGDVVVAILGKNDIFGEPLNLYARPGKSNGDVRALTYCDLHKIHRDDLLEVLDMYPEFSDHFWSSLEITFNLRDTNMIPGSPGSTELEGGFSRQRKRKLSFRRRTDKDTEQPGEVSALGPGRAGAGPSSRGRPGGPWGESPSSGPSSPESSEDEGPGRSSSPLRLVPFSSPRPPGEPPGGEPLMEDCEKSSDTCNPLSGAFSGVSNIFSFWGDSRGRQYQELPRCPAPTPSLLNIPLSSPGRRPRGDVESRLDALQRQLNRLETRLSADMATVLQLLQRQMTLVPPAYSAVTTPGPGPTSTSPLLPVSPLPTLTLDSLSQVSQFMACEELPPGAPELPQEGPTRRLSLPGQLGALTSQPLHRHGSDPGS
Voltage-gated inwardly rectifying potassium channel KCNH2, sequence (Q12809 whole entry): as above

## O=C(Cc1ccc(F)c(C(F)(F)F)c1)N1CCN(c2ccc3nncn3n2)CC1
[1]
  EC50: 0.07 µM
[2]
  Activity: Non-Toxic
[3]
  Activity: 43%
[4]
  inhibition at 1 µM: 15%
[5]
  inhibition at 10 µM: 58%
[6]
  inhibition at 30 µM: 84%
[7]
  microsomal CLint: < 57.8 µL/min/mg
[8]
  t1/2: > 2 h
[9]
  microsomal CLint: < 5.8 µL/min/mg
[10]
  t1/2: > 2 h
[11]
  PPB: 51.8%
[12]
  AUC: 3.3 µg·h/mL
[13]
  AUC: 2998 ng·h/g
[14]
  Cmax: 0.568 µg/mL
[15]
  Cmax: 299 ng/g
[16]
  Tmax: 1 h
[17]
  Tmax: 2 h
[18]
  Activity: >99%
[19]
  Activity: Active
[20]
  Activity: inactive
